In general, IC50 refers to the point on the concentration scale where inhibition reaches its midpoint.

The target in the first assay is T1, purified human IDO protein (Homo sapiens, UniProt P14902).
T1 construct: 2 extra amino acids (linker from the BglII cloning site of pQE70); made in house; host or cells: E. coli M15(pREP4) with plasmid pQE70-hIDO
T1 sequence (P14902 whole entry P110S/E119G): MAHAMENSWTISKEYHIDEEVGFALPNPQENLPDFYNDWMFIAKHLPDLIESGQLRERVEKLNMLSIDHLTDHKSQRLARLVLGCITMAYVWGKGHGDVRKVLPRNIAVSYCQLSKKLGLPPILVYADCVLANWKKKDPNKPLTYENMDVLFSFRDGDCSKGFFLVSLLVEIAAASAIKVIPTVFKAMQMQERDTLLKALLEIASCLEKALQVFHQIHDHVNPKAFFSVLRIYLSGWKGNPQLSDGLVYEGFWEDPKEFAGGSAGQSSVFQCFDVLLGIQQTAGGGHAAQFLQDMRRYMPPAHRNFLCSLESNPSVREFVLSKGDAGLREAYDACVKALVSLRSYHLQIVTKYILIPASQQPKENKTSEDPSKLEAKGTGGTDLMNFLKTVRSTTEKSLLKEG
Put plainly: Enzymatic IDO assay (kynurenine production, absorbance at 480 nm). The conditions noted are these: hIDO IC50, recombinant human IDO; values reported in ranges. Type of assay: biochemical. In short, it runs like this: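 Inhibitors (final 1 mM to 5 nM, in 50 mM potassium phosphate) preincubated with enzyme 5 min at 25 °C, then 200 μM L-tryptophan added, 15 min at 37 °C. TCA stop and 60 °C hydrolysis to kynurenine, detected with p-dimethylaminobenzaldehyde at 480 nm. IC50 by nonlinear regression.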
In the case of `CC(=O)OCCN(C)C(=O)Oc1ccc(Cl)cc1-c1c[nH]cn1` [compound 1253, 2-(((4-chloro-2-(1H-imidazol-4-yl)phenoxy)carbonyl)(methyl)amino)ethyl acetate], the IC50 was over 100 µM.

The same assay, now with this note: recombinant human IDO; values reported in ranges; read-out: hIDO IC50.
Take `c1ccc(-c2c[nH]cn2)c(OCCc2ccc(N3CCCC3)cc2)c1` [compound 1225, 4-(2-(4-(pyrrolidin-1-yl)phenethoxy)phenyl)-1H-imidazole]: the IC50 lay in the range of 10 to 100 µM.
Turning to `O=C(Cc1cscn1)Nc1ccc(CCOc2ccccc2-c2c[nH]cn2)cc1` [compound 1226, N-(4-(2-(2-(1H-imidazol-4-yl)phenoxy)ethyl)phenyl)-2-(thiazol-4-yl)acetamide], the IC50 is 1 to 10 µM.
The same measure, in the same setting: then `O=C(Cc1ncccn1)Nc1ccc(CCOc2ccccc2-c2c[nH]cn2)cc1` [compound 1227, N-(4-(2-(2-(1H-imidazol-4-yl)phenoxy)ethyl)phenyl)-2-(pyrimidin-2-yl)acetamide], with 1 to 10 µM.
Same read-out and setting: then `O=C(Cc1ccccc1)Nc1ccc(CCOc2ccccc2-c2c[nH]cn2)cn1` [compound 1228, N-(5-(2-(2-(1H-imidazol-4-yl)phenoxy)ethyl)pyridin-2-yl)-2-phenylacetamide], with 1 to 10 µM.
Turning to `O=C1CCCCN1c1ccc(CCOc2ccccc2-c2c[nH]cn2)cc1` [compound 1230, 1-(4-(2-(2-(1H-imidazol-4-yl)phenoxy)ethyl)phenyl)piperidin-2-one], the IC50 fell in the range of 10 to 100 µM.
Regarding `Oc1cccc(OCCN2CCOCC2)c1-c1cnc[nH]1` [compound 1231, 2-(1H-imidazol-5-yl)-3-(2-morpholinoethoxy) phenol], the IC50 fell in the range of 10 to 100 µM.
The same measure, in the same setting: the figure for `CC(=O)Nc1ccc(CCOc2cccc(O)c2-c2cnc[nH]2)cc1` [compound 1232, N-(4-(2-(3-hydroxy-2-(1H-imidazol-5-yl)phenoxy)ethyl)phenyl)acetamide] is 10 to 100 µM.
On the same count and under the same terms, the figure for `CN1CCN(CCOc2ccccc2-c2c[nH]cn2)CC1` [compound 1234, 1-(2-(2-(1H-imidazol-4-yl)phenoxy)ethyl)-4-methylpiperazine] is over 100 µM; for `Oc1cccc(OCCC2CCCO2)c1-c1cnc[nH]1` (stereo not drawn) [compound 1235, 2-(1H-imidazol-5-yl)-3-(2-(tetrahydrofuran-2-yl)ethoxy)phenol] it is 10 to 100 µM; for `c1ccc(-c2c[nH]cn2)c(OCCN2CCOCC2)c1` [compound 1236, 4-(2-(2-(1H-imidazol-4-yl)phenoxy)ethyl) morpholine] it is over 100 µM.
Same read-out and setting: then `Oc1cccc(OCCc2ccncc2)c1-c1cnc[nH]1` [compound 1238, 2-(1H-imidazol-5-yl)-3-(2-(pyridin-4-yl)ethoxy) phenol], with 10 to 100 µM; and `O=C(Cc1cncnc1)Nc1ccc(CCOc2ccccc2-c2c[nH]cn2)cc1` [compound 1239, N-(4-(2-(2-(1H-imidazol-4-yl)phenoxy)ethyl)phenyl)-2-(pyrimidin-5-yl)acetamide], with 1 to 10 µM.
`CC(C)(C)OC(=O)N1CCC(CCOc2cccc(O)c2-c2cnc[nH]2)CC1` [compound 1240, tert-butyl 4-(2-(3-hydroxy-2-(1H-imidazol-5-yl)phenoxy)ethyl)piperidine-1-carboxylate]: the IC50 lay in the range of 10 to 100 µM.
With `O=C(Cc1cccc([N+](=O)[O-])c1)Nc1ccc(CCOc2ccccc2-c2c[nH]cn2)cc1` [compound 1241, N-(4-(2-(2-(1H-imidazol-4-yl)phenoxy)ethyl)phenyl)-2-(3-nitrophenyl)acetamide], the half-inhibitory concentration (IC50) is 1 to 10 µM.
Same read-out and setting: then `O=C(Cc1ccccc1[N+](=O)[O-])Nc1ccc(CCOc2ccccc2-c2c[nH]cn2)cc1` [compound 1242, N-(4-(2-(2-(1H-imidazol-4-yl)phenoxy)ethyl)phenyl)-2-(2-nitrophenyl)acetamide], with under 1 µM; and `BrCCOc1ccccc1-c1c[nH]cn1` [compound 1243, 4-(2-(2-bromoethoxy)phenyl)-1H-imidazole], with 10 to 100 µM; and `Nc1cccc(CC(=O)Nc2ccc(CCOc3ccccc3-c3c[nH]cn3)cc2)c1` [compound 1244, N-(4-(2-(2-(1H-imidazol-4-yl)phenoxy)ethyl)phenyl)-2-(3-aminophenyl)acetamide], with 1 to 10 µM.
The same measure, in the same setting: then `O=C(Cc1ccc([N+](=O)[O-])cc1)Nc1ccc(CCOc2ccccc2-c2c[nH]cn2)cc1` [compound 1247, N-(4-(2-(2-(1H-imidazol-4-yl)phenoxy)ethyl)phenyl)-2-(4-nitrophenyl)acetamide], with under 1 µM; and `Nc1ccccc1CC(=O)Nc1ccc(CCOc2ccccc2-c2c[nH]cn2)cc1` [compound 1248, N-(4-(2-(2-(1H-imidazol-4-yl)phenoxy)ethyl)phenyl)-2-(2-aminophenyl)acetamide], with under 1 µM.
On the same count and under the same terms, then `Nc1ccc(CC(=O)Nc2ccc(CCOc3ccccc3-c3c[nH]cn3)cc2)cc1` [compound 1250, N-(4-(2-(2-(1H-imidazol-4-yl)phenoxy)ethyl)phenyl)-2-(4-aminophenyl)acetamide], with 1 to 10 µM; and `Nc1nc(CC(=O)Nc2ccc(CCOc3ccccc3-c3c[nH]cn3)cc2)cs1` [compound 1257, N-(4-(2-(2-(1H-imidazol-4-yl)phenoxy)ethyl)phenyl)-2-(2-aminothiazol-4-yl)acetamide], with 1 to 10 µM.
With `O=C(CC1CCOCC1)Nc1ccc(CCOc2ccccc2-c2c[nH]cn2)c(Cl)c1` [compound 1260, N-(4-(2-(2-(1H-imidazol-4-yl)phenoxy)ethyl)-3-chlorophenyl)-2-(tetrahydro-2H-pyran-4-yl)acetamide], the IC50 was under 1 µM.
On the same count and under the same terms, then `COC(=O)c1cccc(C(=O)Nc2ccc(CCOc3ccccc3-c3c[nH]cn3)cc2)c1` [compound 1261, methyl 3-((4-(2-(2-(1H-imidazol-4-yl)phenoxy)ethyl)phenyl)carbamoyl)benzoate], with under 1 µM.
For `O=C(Nc1ccc(CCOc2ccccc2-c2c[nH]cn2)cc1)NC1CCOCC1` [compound 1263, 1-(4-(2-(2-(1H-imidazol-4-yl)phenoxy)ethyl)phenyl)-3-(tetrahydro-2H-pyran-4-yl)urea], the IC50 is 10 to 100 µM.
Same read-out and setting: the figure for `COC(=O)[C@@H](Cc1cn(C)c2ccccc12)NC(=O)Oc1ccc(Cl)cc1-c1c[nH]cn1` [compound 1264, (R)-methyl 2-(((4-chloro-2-(1H-imidazol-4-yl)phenoxy)carbonyl)amino)-3-(1-methyl-1H-indol-3-yl) propanoate] is 1 to 10 µM.
Same read-out and setting: then `O=C(Nc1ccc(CCOc2ccccc2-c2c[nH]cn2)c(Cl)c1)NC1CCOCC1` [compound 1265, 1-(4-(2-(2-(1H-imidazol-4-yl)phenoxy)ethyl)-3-chlorophenyl)-3-(tetrahydro-2H-pyran-4-yl)urea], with under 1 µM; and `O=C(O)c1ccc(C(=O)Nc2ccc(CCOc3ccccc3-c3c[nH]cn3)cc2)cc1` [compound 1270, 4-((4-(2-(2-(1H-imidazol-4-yl)phenoxy)ethyl)phenyl)carbamoyl)benzoic acid], with 1 to 10 µM; and `COC(=O)c1ccc(C(=O)Nc2ccc(CCOc3ccccc3-c3c[nH]cn3)cc2)cc1` [compound 1271, methyl 4-((4-(2-(2-(1H-imidazol-4-yl)phenoxy)ethyl)phenyl)carbamoyl)benzoate], with 1 to 10 µM.
On the same count and under the same terms, the figure for `O=C(Nc1ccc(CCOc2ccccc2-c2c[nH]cn2)cc1)c1cc(=O)[nH]c(=O)[nH]1` [compound 1272] is 1 to 10 µM.

The values above are taken from patent publication US8722720B2, “Imidazole derivatives as IDO inhibitors” (NewLink Genetics Corporation, priority 2010, dated 2014).
